Patent US12024494B2, “Salt of LSD1 inhibitor and a polymorph thereof” (CSPC ZHONGQI PHARMACEUTICAL TECHNOLOGY (SHIJIAZHUANG) CO., …, priority 2018, dated 2024)

What was measured:
[1] = Solvent stability of the crystal form (suspension, 40° C., 2 days); format: physicochemical; conditions: for Crystal form: 40° C., 2 days
Experimental: Appropriate amounts of the compound III were weighed and added to different glass vials, and added respectively with appropriate amount of a solvent or a solvent mixture to prepare a suspension. After added with a magnet rotor and placed at room temperature, the above samples were placed on a constant temperature mixer (40° C.) to be shaken for 2 days (avoid from light). In order to ensure that the sample was as suspended as possible, the amount of the compound and the solvent would be adjusted according to the test phenomenon and even the container used in the experiment may be changed during the experiment. (The dissolved sample was evaporated naturally to dryness).

[2] = Solid stability of the crystal form (XRPD) under high temperature, high humidity and light; format: physicochemical
Experimental: For the samples placed under the conditions of high temperature (60° C.) and high humidity (relative humidity of 92.5% RH), the bottle opening was sealed with an aluminum foil, and some small holes were pierced in the aluminum foil to ensure that the sample can be sufficiently in contact with ambient air, and the samples were placed in the corresponding constant temperature and humidity ovens. The sample exposed to light (open, not covered with aluminum foil) and the control sample (the entire sample bottle was covered with aluminum foil) were placed in a light box. At each time point, 2 samples were weighed as formal test samples. […] The sample bottles were wrapped with an aluminum foil, and the aluminum foil was pierced with small holes. They were also placed in the corresponding constant temperature and humidity ovens. The sample was taken and detected (by XRPD) at the 5th day and 10th day, and the detection results were compared with the initial detection result at 0 day.

[3] = system: human small cell lung cancer NCI-H1417 cell subcutaneous xenograft tumor; assay: In vivo efficacy on NCI-H1417 subcutaneous xenograft tumor in CB-17 SCID mouse; conditions: for TGI (%) (Day 35) / Tumor volume (mm^3) (Day 35): PO, QD
Experimental: Week age and weight: 6-8 weeks old, weight: 16-21 grams
Human small cell lung cancer NCI-H1417 cells were cultured in a monolayer in vitro with RPMI-1640 medium plus 10% fetal bovine serum, at 37° C. and 5% CO2 to culture and passage. When the cell saturation was 80%-90%, the cells were collected by trypsin-EDTA digestion, counted, adjusted to 10×10^7 cells/mL and resuspended in PBS.
0.2 mL (10×10^6 cells) of NCI-H1417 cells (with Matrigel, volume ratio 1:1) were subcutaneously inoculated on the right back of each mouse. When the average tumor volume reached about 100-150 mm^3, the mice were grouped randomly and started to be administered.
The experimental vehicle was a 0.5% methyl cellulose solution. 5 g of methyl cellulose was weighed, dissolved in 800 mL of ultrapure water, stirred evenly and brought to the volume of 1000 mL with ultrapure water. The test substance was dissolved in the vehicle, prepared into a uniform solution of a certain concentration, and stored at 4° C.
The experimental indicator was to investigate whether the tumor growth was inhibited, delayed or cured. The tumor diameter was measured with a vernier caliper twice a week. The tumor volume is calculated by the formula of V=0.5a×b^2, where a and b represent the long diameter and short diameter of the tumor, respectively.
TGI (%) is used for the anti-tumor efficacy of the compound. TGI (%) reflects the tumor growth inhibition rate. TGI (%)=[(1−(Average tumor volume at the end of the administration of a certain treatment group−average tumor volume at the beginning of the administration of the treatment group))/(Average tumor volume at the end of treatment in the vehicle control group−Average tumor volume at the beginning of the treatment in the vehicle control group)]×100%. Vehicle control group: Vehicle (0.5% methylcellulose solution).

LSD1 = LSD1 (Homo sapiens (Human), UniProt O60341); assay: LSD1 inhibition, enzyme fluorescent conjugated method; format: biochemical; conditions: 10 concentrations, initial 10 μM, 3-fold dilution, read-out: IC50 (nM) Mean ± standard deviation
Experimental: The experiment was conducted in duplicate with an initial concentration of 10 μM diluted in a gradient of 3 times, and it was repeated twice at different dates.
LSD1 buffer composition: 50 mM Tris-HCl, pH 7.5, 0.05% CHAPS, 1% DMSO.
Reaction time: reacted at room temperature for 1 hour
1.2.1 Adding enzyme to a freshly prepared buffer
1.2.2 Adding a DMSO solution of the compound to the enzyme mixture using Acoustic Technology (Echo 550, LabCyte Inc. Sunnyvale, CA) at nL level, and incubating at room temperature for 30 minutes
1.2.3 Adding the substrate to a freshly prepared buffer
1.2.4 Incubating at room temperature for 1 hour
1.2.5 Preparing to test the mixture
1.2.6 Using Perkin Elmer Envision to read data
1.2.7 Using Excel and GraphPad Prism software to analyze data

[4] = Hygroscopicity by dynamic vapor adsorption (DVS); format: physicochemical; conditions: 25° C. and 80% RH
Experimental: Instrument model: SMS DVS Advantage dynamic vapor adsorption instrument Test conditions: a sample (10˜15 mg) was taken and placed in the DVS sample pan for testing.
Balance: dm/dt=0.01%/min (shortest: 10 min, longest: 180 min)
drying: drying at 0% RH for 120 min
RH (%) test step range: 0%-90%-0%
Experimental Materials: SMS DVS Advantage dynamic vapor adsorption instrument

Question: With `N[C@H]1CC[C@H](c2nc(C3(CN[C@@H]4C[C@H]4c4ccccc4)CC3)no2)CC1` [Crystal form A of Compound III] as the molecule, how does the Crystal form ([1]; Acetonitrile) read?
Answer: Crystal form A

Question: And the Crystal form ([1]; Isopropanol)?
Answer: Crystal form A

Question: And the Crystal form ([1]; Isopropyl acetate)?
Answer: Crystal form A

Question: And the Crystal form ([1]; Methanol, dissolved, and then precipitated)?
Answer: Crystal form A

Question: And the Crystal form ([1]; Tetrahydrofuran)?
Answer: Crystal form A

Question: And the “Solvent stability (conclusion)” value ([1]; in the solvent)?
Answer: good stability

Question: What about the Crystal form ([2]; 0 day (initial)) of the same molecule?
Answer: Crystal Form A

Question: And the Crystal form ([2]; High humidity (relative humidity 92.5%, open), 5th day)?
Answer: Crystal Form A

Question: And the Crystal form ([2]; High humidity (relative humidity 92.5%, open), 10th day)?
Answer: Crystal Form A

Question: And the Crystal form ([2]; High temperature (60° C., open), 5th day)?
Answer: Crystal Form A

Question: What about the Crystal form ([2]; High temperature (60° C., open), 10th day) of the same molecule?
Answer: Crystal Form A

Question: What about the Crystal form ([2]; Light (total illuminance = 1.2 × 10^6 Lux·hr/near ultraviolet = 200 w·hr/m^2, open), 5th day) of the same molecule?
Answer: Crystal Form A

Question: What about the Crystal form ([2]; Light (total illuminance = 1.2 × 10^6 Lux·hr/near ultraviolet = 200 w·hr/m^2, open), 10th day) of the same molecule?
Answer: Crystal Form A

Question: And the “Solid stability (conclusion)” value ([2]; high temperature, high humidity and strong light)?
Answer: good stability

Question: And the “TGI (%) (Day 35)” value ([3]; 1 mg/kg)?
Answer: 81.9%

Question: What about the “Tumor volume (mm^3) (Day 35)” value ([3]; 1 mg/kg) of the same molecule?
Answer: 178 ± 17 mm^3

Question: What about the “TGI (%) (Day 35)” value ([3]; 1.5 mg/kg) of the same molecule?
Answer: 99.2%

Question: And the “Tumor volume (mm^3) (Day 35)” value ([3]; 1.5 mg/kg)?
Answer: 121 ± 15 mm^3

Question: And the “TGI (%) (Day 35)” value ([3]; 3 mg/kg)?
Answer: 115.6%

Question: And the “Tumor volume (mm^3) (Day 35)” value ([3]; 3 mg/kg)?
Answer: 68 ± 13 mm^3

Question: And the “Anti-tumor effect (conclusion)” value ([3]; NCI-H1417 xenograft tumor model)?
Answer: excellent anti-tumor effect

Question: And the IC50 (LSD1)?
Answer: 8 nM

Question: And the Classification of hygroscopicity [4]?
Answer: slightly hygroscopic

Question: And the “ΔW (moisture weight gain)” value [4]?
Answer: 1.14%
